Data as given in patent US20250339569A1, “CARBONIC ANHYDRASE IX LIGANDS” (priority 2021, published 2025).
Starred links: 1 amine or outer side, 2 acyl side, 3 side chain; linkers in the order of their positions; H or OH if unused. Positions of bridges follow the written chain, without caps; N, C: chain ends. Non-standard residues stand in square brackets, D forms with d. Residues, ends and D or L forms follow the SMILES beside them. *: point of attachment. X63 = O=C1CC[C@@H](C(=O)Nc2cccc(C[C@H](N[*:1])C(=O)[*:2])c2)N1; X62 = O=C(Nc1cccc(C[C@H](N[*:1])C(=O)[*:2])c1)c1c[nH]cn1; DOTA = O=C(O)CN1CCN(CC(=O)O)CCN(CC(=O)*)CCN(CC(=O)O)CC1; X66 = NC(=O)CCC(=O)Nc1cccc(C[C@H](N[*:1])C(=O)[*:2])c1; X68 = CC1(C(=O)Nc2cccc(C[C@H](N[*:1])C(=O)[*:2])c2)CC1; X54 = O=C(Nc1cccc(C[C@H](N[*:1])C(=O)[*:2])c1)c1cnco1; X43 = CCC(=O)Nc1cccc(C[C@H](N[*:1])C(=O)[*:2])c1; Phe(4-NH2) = Nc1ccc(C[C@H](N)C(=O)O)cc1; Cyclopentanecarbonyl = O=C(C1CCCC1)*; mXylylene = c1cc(C[*:1])cc(C[*:2])c1; X2 = O=C(CN1CCC(N[*:1])CC1)[*:2]; Isonicotinoyl = O=C(c1ccncc1)*; X58 = CS(=O)(=O)c1ccc(CN*)cc1; X42 = c1ccc2cc(CN*)ccc2c1; X64 = c1cc2cc(CN*)ccc2cn1; Dap = NC[C@H](N)C(=O)O; AEEA = NCCOCCOCC(=O)O; X56 = O=C(c1nccs1)*

These compounds were tested against T1, CAIX-expressing human HT-29 colorectal cancer cells (Homo sapiens, UniProt Q16790) (assay: FACS binding assay (IC50 determination, competition with tracer 3BP-2776 or 3BP-4149)). Conditions: FACS binding assay, HT-29 cells, competition with tracer 3BP-2776 (10 nM, biotin-labeled), 4° C., 1 hour; read-out: pIC50 category (activity) (converted).
T1 construct: CAIX-expressing human HT-29 colorectal cancer cells; host or cells: HT-29 human colorectal cancer cells
Outline: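 HT-29 cells in FACS buffer (PBS, 1% FCS) at 500.000 cells/ml were exposed to compounds competing with a labelled tracer, with biotinylated compounds detected by 1 μg/mL APC-streptavidin for 30 min on ice. APC/Cy5 median fluorescence was read by flow cytometry and IC50 derived by 4PL fit.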

IC50 [nM] | SMILES
10 to 79.4 | CC(C)C[C@@H]1NC(=O)[C@H](Cc2ccc(NC(=O)C3CCCC3)cc2)NC(=O)[C@H](CC(=O)O)NC(=O)[C@H]2CCCN2C(=O)[C@H](CCC(=O)O)NC(=O)[C@@H](NC(=O)[C@H](Cc2ccc(O)cc2)NC(=O)[C@@H](NC(=O)CN2CCC(NC(=O)CN3CCN(CC(=O)O)CCN(CC(=O)O)CCN(CC(=O)O)CC3)CC2)C(C)C)CSCc2cccc(c2)CSC[C@@H](C(N)=O)NC(=O)[C@H](CO)NC(=O)[C@H](Cc2c[nH]c3ccccc23)NC(=O)[C@H]([C@@H](C)O)NC1=O [3BP-4173] ({DOTA}-[X2]VYCE[dP]D[Phe(4-NH2)](Cyclopentanecarbonyl)LTWSC-NH2; linker 4-13 via mXylylene)
< 10 | CC(C)C[C@@H]1NC(=O)[C@H](Cc2c[nH]c3ccccc23)NC(=O)[C@H](CC(=O)O)NC(=O)[C@H]2CCCN2C(=O)[C@H](CCC(=O)O)NC(=O)[C@@H]2CSCc3cccc(c3)CSC[C@@H](C(N)=O)NC(=O)[C@H](CCC(=O)NC[C@H](NC(=O)[C@@H](NC(=O)CN3CCC(NC(=O)CN4CCN(CC(=O)O)CCN(CC(=O)O)CCN(CC(=O)O)CC4)CC3)C(C)C)C(=O)N2)NC(=O)[C@H](Cc2c[nH]c3ccccc23)NC(=O)[C@H]([C@@H](C)O)NC1=O [3BP-4177] ({DOTA}-[X2]V[Dap]CE[dP]DWLTWEC-NH2; lactam 3-12; linker 4-13 via mXylylene)
100 to 794 | CC(C)C[C@@H]1NC(=O)[C@H](Cc2ccc(NC(=O)c3nccs3)cc2)NC(=O)[C@H](CC(=O)O)NC(=O)[C@H]2CCCN2C(=O)[C@H](CCC(=O)O)NC(=O)[C@@H](NC(=O)[C@H](Cc2ccc(O)cc2)NC(=O)[C@@H](NC(=O)CN2CCC(NC(=O)CN3CCN(CC(=O)O)CCN(CC(=O)O)CCN(CC(=O)O)CC3)CC2)C(C)C)CSCc2cccc(c2)CSC[C@@H](C(N)=O)NC(=O)[C@H](CO)NC(=O)[C@H](Cc2c[nH]c3ccccc23)NC(=O)[C@H]([C@@H](C)O)NC1=O [3BP-4180] ({DOTA}-[X2]VYCE[dP]D[Phe(4-NH2)](X56)LTWSC-NH2; linker 4-13 via mXylylene)
100 to 794 | CC(C)C[C@@H]1NC(=O)[C@H](Cc2ccc(NC(=O)c3ccncc3)cc2)NC(=O)[C@H](CC(=O)O)NC(=O)[C@H]2CCCN2C(=O)[C@H](CCC(=O)O)NC(=O)[C@@H](NC(=O)[C@H](Cc2ccc(O)cc2)NC(=O)[C@@H](NC(=O)CN2CCC(NC(=O)CN3CCN(CC(=O)O)CCN(CC(=O)O)CCN(CC(=O)O)CC3)CC2)C(C)C)CSCc2cccc(c2)CSC[C@@H](C(N)=O)NC(=O)[C@H](CO)NC(=O)[C@H](Cc2c[nH]c3ccccc23)NC(=O)[C@H]([C@@H](C)O)NC1=O [3BP-4183] ({DOTA}-[X2]VYCE[dP]D[Phe(4-NH2)](Isonicotinoyl)LTWSC-NH2; linker 4-13 via mXylylene)
< 10 | CC(C)C[C@@H]1NC(=O)[C@H](Cc2c[nH]c3ccccc23)NC(=O)[C@H](CCC(=O)NCc2ccc3ccccc3c2)NC(=O)[C@H]2CCCN2C(=O)[C@H](CCC(=O)O)NC(=O)[C@@H](NC(=O)[C@H](Cc2ccc(O)cc2)NC(=O)[C@@H](NC(=O)CN2CCC(NC(=O)CN3CCN(CC(=O)O)CCN(CC(=O)O)CCN(CC(=O)O)CC3)CC2)C(C)C)CSCc2cccc(c2)CSC[C@@H](C(N)=O)NC(=O)[C@H](CO)NC(=O)[C@H](Cc2c[nH]c3ccccc23)NC(=O)[C@H]([C@@H](C)O)NC1=O [3BP-4215, DOTA-APAc-Val-Tyr-[Cys(3MeBn)-Glu-pro-Glu(NHMe2Nph)-Trp-Leu-Thr-Trp-Ser-Cys]-NH2] ({DOTA}-[X2]VYCE[dP]E(X42)WLTWSC-NH2; linker 4-13 via mXylylene)
< 10 | CC(C)C[C@@H]1NC(=O)[C@H](Cc2cccc(NC(=O)C3(C)CC3)c2)NC(=O)[C@H](CC(=O)O)NC(=O)[C@H]2CCCN2C(=O)[C@H](CCC(=O)O)NC(=O)[C@@H](NC(=O)[C@H](Cc2ccc(O)cc2)NC(=O)[C@@H](NC(=O)CN2CCC(NC(=O)CN3CCN(CC(=O)O)CCN(CC(=O)O)CCN(CC(=O)O)CC3)CC2)C(C)C)CSCc2cccc(c2)CSC[C@@H](C(N)=O)NC(=O)[C@H](CO)NC(=O)[C@H](Cc2c[nH]c3ccccc23)NC(=O)[C@H]([C@@H](C)O)NC1=O [3BP-4234] ({DOTA}-[X2]VYCE[dP]D[X68]LTWSC-NH2; linker 4-13 via mXylylene)
< 10 | CCC(=O)Nc1cccc(C[C@@H]2NC(=O)[C@H](CC(=O)O)NC(=O)[C@H]3CCCN3C(=O)[C@H](CCC(=O)O)NC(=O)[C@@H](NC(=O)[C@H](Cc3ccc(O)cc3)NC(=O)[C@@H](NC(=O)CN3CCC(NC(=O)CN4CCN(CC(=O)O)CCN(CC(=O)O)CCN(CC(=O)O)CC4)CC3)C(C)C)CSCc3cccc(c3)CSC[C@@H](C(N)=O)NC(=O)[C@H](CO)NC(=O)[C@H](Cc3c[nH]c4ccccc34)NC(=O)[C@H]([C@@H](C)O)NC(=O)[C@H](CC(C)C)NC2=O)c1 [3BP-4235] ({DOTA}-[X2]VYCE[dP]D[X43]LTWSC-NH2; linker 4-13 via mXylylene)
10 to 79.4 | CC(C)C[C@@H]1NC(=O)[C@H](Cc2cccc(NC(=O)CCC(N)=O)c2)NC(=O)[C@H](CC(=O)O)NC(=O)[C@H]2CCCN2C(=O)[C@H](CCC(=O)O)NC(=O)[C@@H](NC(=O)[C@H](Cc2ccc(O)cc2)NC(=O)[C@@H](NC(=O)CN2CCC(NC(=O)CN3CCN(CC(=O)O)CCN(CC(=O)O)CCN(CC(=O)O)CC3)CC2)C(C)C)CSCc2cccc(c2)CSC[C@@H](C(N)=O)NC(=O)[C@H](CO)NC(=O)[C@H](Cc2c[nH]c3ccccc23)NC(=O)[C@H]([C@@H](C)O)NC1=O [3BP-4238] ({DOTA}-[X2]VYCE[dP]D[X66]LTWSC-NH2; linker 4-13 via mXylylene)
10 to 79.4 | CC(C)C[C@@H]1NC(=O)[C@H](Cc2cccc(NC(=O)c3cnco3)c2)NC(=O)[C@H](CC(=O)O)NC(=O)[C@H]2CCCN2C(=O)[C@H](CCC(=O)O)NC(=O)[C@@H](NC(=O)[C@H](Cc2ccc(O)cc2)NC(=O)[C@@H](NC(=O)CN2CCC(NC(=O)CN3CCN(CC(=O)O)CCN(CC(=O)O)CCN(CC(=O)O)CC3)CC2)C(C)C)CSCc2cccc(c2)CSC[C@@H](C(N)=O)NC(=O)[C@H](CO)NC(=O)[C@H](Cc2c[nH]c3ccccc23)NC(=O)[C@H]([C@@H](C)O)NC1=O [3BP-4239] ({DOTA}-[X2]VYCE[dP]D[X54]LTWSC-NH2; linker 4-13 via mXylylene)
10 to 79.4 | CC(C)C[C@@H]1NC(=O)[C@H](Cc2cccc(NC(=O)c3c[nH]cn3)c2)NC(=O)[C@H](CC(=O)O)NC(=O)[C@H]2CCCN2C(=O)[C@H](CCC(=O)O)NC(=O)[C@@H](NC(=O)[C@H](Cc2ccc(O)cc2)NC(=O)[C@@H](NC(=O)CN2CCC(NC(=O)CN3CCN(CC(=O)O)CCN(CC(=O)O)CCN(CC(=O)O)CC3)CC2)C(C)C)CSCc2cccc(c2)CSC[C@@H](C(N)=O)NC(=O)[C@H](CO)NC(=O)[C@H](Cc2c[nH]c3ccccc23)NC(=O)[C@H]([C@@H](C)O)NC1=O [3BP-4240] ({DOTA}-[X2]VYCE[dP]D[X62]LTWSC-NH2; linker 4-13 via mXylylene)
10 to 79.4 | CC(C)C[C@@H]1NC(=O)[C@H](Cc2cccc(NC(=O)[C@@H]3CCC(=O)N3)c2)NC(=O)[C@H](CC(=O)O)NC(=O)[C@H]2CCCN2C(=O)[C@H](CCC(=O)O)NC(=O)[C@@H](NC(=O)[C@H](Cc2ccc(O)cc2)NC(=O)[C@@H](NC(=O)CN2CCC(NC(=O)CN3CCN(CC(=O)O)CCN(CC(=O)O)CCN(CC(=O)O)CC3)CC2)C(C)C)CSCc2cccc(c2)CSC[C@@H](C(N)=O)NC(=O)[C@H](CO)NC(=O)[C@H](Cc2c[nH]c3ccccc23)NC(=O)[C@H]([C@@H](C)O)NC1=O [3BP-4241] ({DOTA}-[X2]VYCE[dP]D[X63]LTWSC-NH2; linker 4-13 via mXylylene)

Same assay, conditions: FACS binding assay, HT-29 cells, competition with tracer 3BP-4149 (3 nM, Cy5-labeled), 4° C., 1 hour; read-out: pIC50 category (activity) (converted)

IC50 [nM] | SMILES
10 to 79.4 | CC(C)C[C@@H]1NC(=O)[C@H](Cc2c[nH]c3ccccc23)NC(=O)[C@H](CC(=O)O)NC(=O)[C@H]2CCCN2C(=O)[C@H](CCC(=O)O)NC(=O)[C@@H]2CSCc3cccc(c3)CSC[C@@H](C(N)=O)NC(=O)[C@H](CNC(=O)C[C@H](NC(=O)COCCOCCNC(=O)CN3CCN(CC(=O)O)CCN(CC(=O)O)CCN(CC(=O)O)CC3)C(=O)N2)NC(=O)[C@H](Cc2c[nH]c3ccccc23)NC(=O)[C@H]([C@@H](C)O)NC1=O [3BP-4262] ({DOTA-AEEA}-DCE[dP]DWLTW[Dap]C-NH2; lactam 1-10; linker 2-11 via mXylylene)
100 to 794 | CC(C)C[C@@H]1NC(=O)[C@H](Cc2c[nH]c3ccccc23)NC(=O)[C@H](CCC(=O)NCc2ccc3cnccc3c2)NC(=O)[C@H]2CCCN2C(=O)[C@H](CCC(=O)O)NC(=O)[C@@H](NC(=O)[C@H](Cc2ccc(O)cc2)NC(=O)[C@@H](NC(=O)CN2CCC(NC(=O)CN3CCN(CC(=O)O)CCN(CC(=O)O)CCN(CC(=O)O)CC3)CC2)C(C)C)CSCc2cccc(c2)CSC[C@@H](C(N)=O)NC(=O)[C@H](CO)NC(=O)[C@H](Cc2c[nH]c3ccccc23)NC(=O)[C@H]([C@@H](C)O)NC1=O [3BP-4328] ({DOTA}-[X2]VYCE[dP]E(X64)WLTWSC-NH2; linker 4-13 via mXylylene)
10 to 79.4 | CC(C)C[C@@H]1NC(=O)[C@H](Cc2c[nH]c3ccccc23)NC(=O)[C@H](CCC(=O)NCc2ccc(S(C)(=O)=O)cc2)NC(=O)[C@H]2CCCN2C(=O)[C@H](CCC(=O)O)NC(=O)[C@@H](NC(=O)[C@H](Cc2ccc(O)cc2)NC(=O)[C@@H](NC(=O)CN2CCC(NC(=O)CN3CCN(CC(=O)O)CCN(CC(=O)O)CCN(CC(=O)O)CC3)CC2)C(C)C)CSCc2cccc(c2)CSC[C@@H](C(N)=O)NC(=O)[C@H](CO)NC(=O)[C@H](Cc2c[nH]c3ccccc23)NC(=O)[C@H]([C@@H](C)O)NC1=O [3BP-4333] ({DOTA}-[X2]VYCE[dP]E(X58)WLTWSC-NH2; linker 4-13 via mXylylene)
